Assay results published in patent US7807877B2, “Genetic sequences having methyltransferase activity and uses therefor” (International Flower Developments Pty. Ltd., priority 2002, dated 2010).

Test system: rose petals
Experiment: Incubation of excised rose petal segments with precursors or end products
Assay type: cell-based, Rosa hybrida
Details: around 16 hours; for Color at cut edge after incubation in DHM: around 23° C.; for Color at cut edge upon production of delphinidin: incubation in dihydromyricetin 1-2 mg/mL
Protocol: To determine whether rose petals contained the enzymes necessary for conversion of dihydromyricetin to delphinidin, precursor-feeding experiments with dihydromyricetin were initiated.
Petal segments of a selection of commercial cultivars of roses (Toplesse, Lambada, Medeo, Pamela, Sonia, Oceana, Mystique) were placed in solutions of 1-2 mg/mL dihydromyrectin or water only and incubated for around 16 hours in a growth room at a temperature of around 23° C. Pink/purple colors were observed near the cut edges of the petals (Table 6).
Petal segments of roses were placed in solutions of 1-2 mg/mL malvidin 3,5-diglucoside, 1-2 mg/mL dihydromyrectin or water only and incubated for around 16 hours in a growth room at a temperature of around 23° C. The production of colors in the purple range were observed near the cut edges of the petals upon incubation with dihydromyrectin or malvidin 3,5-diglucoside (Table 7).

O=C1c2c(O)cc(O)cc2O[C@H](c2cc(O)c(O)c(O)c2)[C@H]1O [DHM, dihydromyricetin]
production of delphinidin: TLC analysis of the anthocyanidins in the pink/purple segments (petal segments of commercial rose cultivars, 1-2 mg/mL)
pink/purple: Color at cut edge after incubation in DHM (rose cultivar Lambada (orange petal), 1-2 mg/mL) | Color at cut edge upon production of delphinidin (rose cultivar Lambada (orange petal)) | Color at cut edge after incubation in DHM (rose cultivar Medeo (pale apricot petal), 1-2 mg/mL) | Color at cut edge after incubation in DHM (rose cultivar Mystique (apricot petal), 1-2 mg/mL) | Color at cut edge after incubation in DHM (rose cultivar Oceana (cream petal), 1-2 mg/mL) | Color at cut edge after incubation in DHM (rose cultivar Pamela (white/pale pink petal), 1-2 mg/mL) | Color at cut edge after incubation in DHM (rose cultivar Sonia (apricot/pink petal), 1-2 mg/mL) | Color at cut edge after incubation in DHM (rose cultivar Toplesse (pink petal), 1-2 mg/mL) | Color at cut edge upon production of delphinidin (rose cultivar Toplesse (pink petal))
